How the values were obtained:
HeLa cells [1] = experiment: standard MTT assay, cytotoxicity in HeLa cells; assay type: cell-based; settings: incubation at different concentrations for 24 h
Source text: Before bioimaging, the cytotoxicity of TVQE was first studied by standard MTT assay in HeLa cells.

[2] = tested on: mitochondria in live HeLa cells; experiment: co-stain with mitochondrial probe MitoTracker Deep Red FM (MTDR), CLSM; assay type: cell-based; settings: 2 μM TVQE, 0.2 μM MTDR
Protocol: (§1) To further confirm the staining location of TVQE, co-stain experiments with commercialized mitochondrial probe MitoTracker Deep Red FM (MTDR) and lipid-droplet probe Nile Red were performed.

[3] = tested on: lipid droplets in live HeLa cells; experiment: co-stain with lipid-droplet probe Nile Red, CLSM; assay type: cell-based; settings: 2 μM TVQE, 1 μM Nile Red
Protocol: as §1

[4] = absorption and fluorescence (FL) spectra, photophysical properties; assay type: physicochemical
Protocol: The absorption and fluorescence (FL) spectra of TVQE and TVQ in different solvents were tested and the results are shown in FIGS. 11A-11D and FIGS. 12A-12D.
Furthermore, fluorescence spectra of TVQE in EtOH and EtOH/hexane mixtures with different hexane fraction were shown in FIG. 11A. In pure EtOH, TVQE was weakly emissive with a quantum yield of 0.7%. With the increase of hexane volume content, the FL intensity increased gradually, accompanied with blue-shift in FL maximum from 673 nm to 637 nm, shown in FIG. 11B. When fH=90%, FL intensity reached the maximum with a quantum yield of 3% due to the formation of aggregates, indicating the AIE feature of TVQE. The FL intensity decreased when fH increased to 95%, probably due to the change of the morphology and size of the aggregates. […]

esterase = experiment: FL spectra of TVQE treated with active esterase in PBS; assay type: biochemical; settings: room temperature
Protocol: To get insight into the mechanism of TVQE to esterase, the FL spectra of TVQE treated with active esterase in PBS at room temperature were measured and shown in FIG. 11D. At the beginning, only a weak emission peak at around 700 nm was detected. As treatment time progressed, the fluorescence at about 520 nm increased gradually, which was consistent with the FL spectra of TVQ in PBS, depicted in FIG. 12B.

live HeLa cells = experiment: CLSM imaging of live HeLa cells, in situ emission spectra and time tracking; assay type: cell-based
Protocol: Bioimaging experiments were then carried out in live HeLa cells. Based on the spectra imaging function of confocal laser scanning microscope (CLSM), the real color images of live HeLa cells stained with TVQE and in situ emission spectra were obtained (FIGS. 14A-14C and FIG. 15A). […] As designed, TVQE can be hydrolyzed by esterase to provide TVQ. It was speculated that the red emission came from TVQE while the blue emission was from the hydrolysate TVQ.
The in situ imaging performance of TVQE in live HeLa cells at different time points was then tracked and investigated (FIGS. 16A-16B and FIGS. 17A-17B). It could be observed that TVQE first stained mitochondria and emitted red fluorescence. Then, after about 5 min, lipid droplets in the blue channel were clearly illuminated. It should be noted that the fluorescence intensity in the red channel increased at the beginning, reached maximum at about 12 min, then decreased gradually. The fluorescence in the blue channel increased with increased time. […] In addition, the lipophilic hydrolysate tended to accumulate in lipid droplets gradually.

HeLa cells [5] = experiment: flow cytometry of live, early apoptotic, late apoptotic and dead cells stained by TVQE; assay type: cell-based
Protocol: As esterase activity can reflect cell viability, an investigation was conducted to determine whether TVQE could be used to evaluate cell viability. […] In apoptotic cells, the esterase activity decreased, so that the emission in the blue channel was much weaker than that in live cells. When HeLa cells were treated with 10 mM H2O2 for 1 h and 4.5 h, early and late apoptotic HeLa cells could be clearly and differentially visualized (FIGS. 18 and 19). […] However, nearly no blue-emissive fluorescence signal but strong red emission was detected in dead cells because of the inactivated esterase activity. […] The fluorescence changes in both blue and red channels of cells in different states were obtained from flow cytometry (Becton Dickinson FACSAria Mu). Referring to FIG. 20C, numerical values in the cyan region, e.g., mean fluorescent intensity values around 3.2×10^4 and 650 in the blue and red channels, respectively correspond to cells that were alive, numerical values in the red region, e.g., mean fluorescence intensity values around 1.4×10^4 and 780 in the blue and red channels, respectively, correspond to cells in early apoptotic stages, numerical values in the orange region, e.g., mean fluorescence intensity values around 1700 and 4200 in the blue and red channels, respectively, correspond to cells in the late apoptotic stages, and numerical values in the green region, e.g., mean fluorescence intensity values around 780 and 1.5×10^4 in the blue and red channels, respectively, correspond to cells that were dead.
Flow cytometry is a widely used tool for statistical analysis. It has different laser sources and is suitable for simultaneous detection of multichannel fluorescence signals. A flow cytometry assay was performed to monitor the fluorescence changes in both red and blue channels of cells at different physiological stages. […] Compared with live cells, the blue emission in early apoptotic cells was a little weaker. […] The red emission in dead cells was stronger in comparison with late apoptotic cells.

[6] = live HeLa cells stained with 2 μM TVQE, in situ emission spectra
[7] = cells in early apoptotic stages (10 mM H2O2)
[8] = cells in the late apoptotic stages (10 mM H2O2)

## CC(=O)Oc1ccc(C[n+]2ccc(/C=C/c3ccc(N(c4ccccc4)c4ccccc4)cc3)c3ccccc32)cc1 [TVQE]
HeLa cells [1]
  viability of HeLa cells: higher than 85%
[2]
  co-localization coefficient with MTDR: 0.9
[3]
  co-localization coefficient with Nile Red: 0.87
[4]; EtOH
  Stokes shift: 123 nm
  Φ (fluorescence quantum yield): 0.7%
  ε (molar absorptivity at maximum absorption wavelength): 18900 M⁻¹ cm⁻¹
  λabs (absorption maximum): 548 nm
  λem (emission maximum): 671 nm
[4]; Hexane/EtOH = 9/1
  Stokes shift: 131 nm
  ε (molar absorptivity at maximum absorption wavelength): 18800 M⁻¹ cm⁻¹
  λabs (absorption maximum): 527 nm
  λem (emission maximum): 656 nm
[4]; Hexane/EtOH = 9/1 (fH=90%)
  Φ (fluorescence quantum yield): 3%
[4]; THF
  Stokes shift: 156 nm
  Φ (fluorescence quantum yield): 1.3%
  ε (molar absorptivity at maximum absorption wavelength): 16600 M⁻¹ cm⁻¹
  λabs (absorption maximum): 522 nm
  λem (emission maximum): 678 nm
[4]; Tol
  Stokes shift: 125 nm
  Φ (fluorescence quantum yield): 6.6%
  ε (molar absorptivity at maximum absorption wavelength): 17300 M⁻¹ cm⁻¹
  λabs (absorption maximum): 534 nm
  λem (emission maximum): 659 nm
[4]; solid state
  fluorescence emission: 739 nm
  quantum yield: 2.3%
esterase; active esterase (1 U/mL) in PBS
  hydrolysis by esterase: could be hydrolyzed to TVQ with blue emission by esterase
esterase; esterase in PBS
  fluorescence increasing gradually as treatment time progressed: about 520 nm
esterase; esterase in PBS, beginning of treatment
  emission peak at the beginning: around 700 nm
Live HeLa cells; [6]
  blue emission inside cells: 480 nm
  red emission inside cells: 650 nm
Live HeLa cells; live HeLa cells, 2 μM TVQE
  time after which lipid droplets in the blue channel were clearly illuminated: about 5 min
  time at which fluorescence intensity in the red channel reached maximum: about 12 min
HeLa cells [5]; [7]
  mean fluorescence intensity, blue channel: around 1.4×10^4
  mean fluorescence intensity, red channel: around 780
HeLa cells [5]; [8]
  mean fluorescence intensity, blue channel: around 1700
  mean fluorescence intensity, red channel: ~4200
HeLa cells [5]; cells that were alive
  mean fluorescent intensity, blue channel: around 3.2×10^4
  mean fluorescent intensity, red channel: ~650
HeLa cells [5]; cells that were dead
  mean fluorescence intensity, blue channel: around 780
  mean fluorescence intensity, red channel: ~1.5×10^4

— US11754498B2, “Single AIEgen for multiple tasks: imaging of dual organelles and evaluation of cell viability” (THE HONG KONG UNIVERSITY OF SCIENCE AND TECHNOLOGY, priority 2019, dated 2023)
